US20250099433A1, “COMPOSITION AND METHOD FOR TREATMENT OF GRAM NEGATIVE BACTERIAL INFECTION” (The Research Foundation for the State University of New York, priority 2021, published 2025)
Values after ≈ are worked out from the molar mass of the structure shown. Values joined by “and” are separate entries in the source; they are usually repeats but may differ in a detail not shown here. Identical values can stand only once. “Also recorded” adds a separate entry of the source. Like-named read-outs stand apart in the source and are kept apart here.

How the values were obtained:
[1] = tested on: wild-type E. coli; assay: MIC of azithromycin after pre-exposure of wild-type E. coli to 16xMIC inhibitor; assay type: cell-based, Escherichia coli; settings: for MIC: Escherichia coli
[2] = tested on: wild-type E. coli (K12 MG1655); assay: PAE in wild-type E. coli in the presence of sub-MIC azithromycin; assay type: cell-based, Escherichia coli; settings: 16xMIC, 37° C.
Description: FIG. 6. Post-antibiotic effect in the presence of sub-MIC azithromycin.
The PAE measurements were repeated for wild-type E. coli in the presence of sub-MIC levels of the protein synthesis inhibitor azithromycin.

[3] = tested on: FabZ*, hyperactive FabZ strain (L85P); assay: microbe, parasite or virus in culture; assay type: cell-based, Escherichia coli; settings: for MIC: Escherichia coli, read-out: MIC (μM) FabZ*
[4] = tested on: wild-type E. coli (K-12 MG1655); assay: Post-antibiotic effect (PAE) in wild-type E. coli; assay type: cell-based, Escherichia coli; settings: for PAE (h) 4x, Wild-type: 4xMIC for 1 h; for PAE (h) 4x, Wild-type / PAE (h) 16x, Wild-type: 1:1000 dilution; for PAE (h) 16x, Wild-type: 16xMIC for 1 h; for PAE in wild-type E. coli: MIC multiple not stated or 4x and 16xMIC
Description: FIG. 4. Post-antibiotic effect of the ecLpxC inhibitors on wild-type and FabZ* E. coli. […] PAE data for wild-type E. coli are in panels (a) PT805, (c) PT810 and (e) CHIR-090, and for FabZ* E. coli in (b) PT805, (d) PT810 and (f) CHIR-090.
PAE data for wild-type E. coli are in panels (a) PT805, (c) PT810 and (e) CHIR-090, and for FabZ* E. coli in (b) PT805, (d) PT810 and (f) CHIR-090.

[5] = tested on: FabZ* E. coli; assay type: cell-based, Escherichia coli; settings: for PAE (h) 4x, FabZ*: 4xMIC for 1 h; for PAE (h) 4x, FabZ* / PAE (h) 16x, FabZ*: 1:1000 dilution; for PAE (h) 16x, FabZ*: 16xMIC for 1 h; for PAE in FabZ* E. coli: MIC multiple not stated or 1x-16xMIC
Description: FIG. 4. Post-antibiotic effect of the ecLpxC inhibitors on wild-type and FabZ* E. coli.
This included use of an E. coli strain (FabZ*) containing a hyperactive mutant of the fatty acid biosynthesis O-hydroxyacyl-ACP enzyme (FabZ), and determination of PAEs for wild-type E. coli in the presence of sub-MIC concentrations of macrolides.

[6] = tested on: E. coli strain (K-12, MG1655); assay: MIC by microbroth dilution, wild-type E. coli; assay type: cell-based, Escherichia coli; settings: wild-type E. coli K-12 MG1655
[7] = biological target: T1, paLpxC (Pseudomonas aeruginosa (strain ATCC 15692 / DSM 22644 / CIP 104116 / JCM 14847 / LMG 12228 / 1C / PRS 101 / PAO1), UniProt P47205); assay: Spin column (Penefsky) residence time assay on paLpxC; assay type: binding; settings: 37° C.; for tR (min) (Spin column assay): direct displacement; for k (min^−1), spin-column assay: first-order fit
T1 sequence (P47205 1-299): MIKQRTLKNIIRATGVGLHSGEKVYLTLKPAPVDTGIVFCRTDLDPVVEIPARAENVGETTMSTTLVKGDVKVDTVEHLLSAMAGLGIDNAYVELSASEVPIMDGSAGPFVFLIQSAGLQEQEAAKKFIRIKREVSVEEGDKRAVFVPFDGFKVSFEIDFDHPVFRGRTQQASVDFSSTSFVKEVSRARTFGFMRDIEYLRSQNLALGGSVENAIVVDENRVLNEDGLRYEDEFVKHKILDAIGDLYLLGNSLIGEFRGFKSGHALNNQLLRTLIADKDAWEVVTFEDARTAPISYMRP
Protocol: FIG. 14. Spin-column assay. A spin-column assay was used to quantify the residence time of inhibitors on paLpxC at 37° C. […] Samples were then subjected to size exclusion chromatography at different times using a Spin-Trap G-25 column (800×g for 2 min). […] Preincubated solutions of enzyme (10 μM) and inhibitor (10 or 20 μM) were diluted 200-fold into a solution of PT855 (1 μM) at 37° C. Aliquots of this solution were withdrawn at various times and subjected to centrifugal gel filtration chromatography using PD SpinTrap™ G-25 columns. The fluorescence of the eluate was quantified, and the data were fit to a single exponential equation to obtain koff (FIG. 14, Tables 4 and 5).
Inhibitor Residence Time Measurements using a Spin Column Assay. […] Subsequently, 10 μL of the incubation mixture was diluted into 2 mL of the same buffer containing 1 μM of PT855, and 100 μL of this mixture was then aliquoted at different time points and loaded onto a PD SpinTrap™ G-25 column (Cytiva) that had been equilibrated with buffer prior to sample loading. […] The fluorescence intensities corresponding to loading diluted EI without the fluorescent competitor and loading the competitor alone were measured separately to determine the dynamic range and endpoint of the assay. […] Rates were calculated by fitting the change in fluorescence intensity over time to a one-phase association equation in GraphPad Prism.

[8] = tested on: P. aeruginosa PAO1; assay: MIC by microbroth dilution, P. aeruginosa PAO1; settings: Pseudomonas aeruginosa, PAO1, read-out: MIC (μM) (PAO1)
[9] = tested on: efflux-pump mutant strain (ΔMexABCDXY) (paEP); assay: MIC by microbroth dilution, efflux-pump mutant P. aeruginosa; settings: Pseudomonas aeruginosa, read-out: MIC (μM) (paEP)
Description: Bacterial Strains. […] The efflux-pump deficient P. aeruginosa strain (ΔMexABCDXY), N150, was derived from PAO1.
Minimum Inhibitory Concentration (MIC) Measurements.

[10] = tested on: P. aeruginosa PAO1; assay: Time-kill assays in P. aeruginosa PAO1; settings: PAO1, 4x, 8x and 16xMIC, CAMH media, 37° C.
Protocol: Time-kill assays. […] The experimental data points are the mean values from triplicate, independent measurements, and the error bars represent the standard deviation from the mean.
Time-Kill Assays. […] Cultures were shaken at 37° C. for 6 h, and 100 μL aliquots were taken at each 1 h time interval and plated in serial dilutions in a Mueller-Hinton agar plate.

[11] = biological target: T1, paLpxC; assay: biochemical; assay type: binding; settings: for Ki / tR (min) Fluorescence assay: 37° C.; for Ki: fluorescence competition; for tR (min) Fluorescence assay: tR = 1/koff; for koff: read-out: Koff (s^−1); for kon: read-out: Kon (μM^−1s^−1)
[12] = tested on: P. aeruginosa PAO1; assay: Post-antibiotic effect (PAE) in P. aeruginosa PAO1; settings: 37° C.; for PAE (h) 4x: PAO1, 4xMIC for 1 h; for PAE (h) 8x: PAO1, 8xMIC for 1 h; for PAE (h) 16x: PAO1, 16xMIC for 1 h
Protocol: Post-antibiotic effect of the paLpxC inhibitors on wild-type P. aeruginosa. […] The experimental data points are the mean values from triplicate, independent measurements, and the error bars represent the standard deviation from the mean.
After incubating the plates overnight at 37° C., CFUs were enumerated, and the PAE values were calculated using a standard method where the time for the bacteria to recover 1 log post drug washout compared to the control was determined (FIG. 17, Table 6).
Post-antibiotic Effect (PAE). PAEs were determined using P. aeruginosa PAO1. […] The compound was washed out by diluting the culture 1000-fold into fresh CAMH-II medium, and the regrowth of bacteria was monitored by taking 100 μL aliquots each hour and plating serial dilutions on Muller-Hinton agar plates.

SMILES | PAE (h) 4x, Wild-type [4] | PAE (h) 16x, Wild-type [4] | PAE in wild-type E. coli [4] | PAE (h) 4x, FabZ* [5] | PAE (h) 16x, FabZ* [5] | PAE in FabZ* E. coli [5] | tR (min) (Spin column assay) [7] | MIC [8] | MIC [9] | reduction of the starting log CFU/mL of the bacterial culture [10] | Ki [11] | tR (min) Fluorescence assay [11] | koff [11] | kon [11] | PAE (h) 4x [12] | PAE (h) 8x [12] | PAE (h) 16x [12] | also measured
CC[C@H]1OC(=O)[C@H](C)[C@@H](O[C@H]2C[C@@](C)(OC)[C@@H](O)[C@H](C)O2)[C@H](C)[C@@H](O[C@@H]2O[C@H](C)C[C@H](N(C)C)[C@H]2O)[C@](C)(O)C[C@@H](C)CN(C)[C@H](C)[C@@H](O)[C@]1(C)O [azithromycin] | – | – | – | – | – | – | – | – | – | – | – | – | – | – | – | – | – | MIC ([1]; bacteria pre-exposed to 16xMIC ecLpxC inhibitor, read-out: MIC of azithromycin after pre-exposure to ecLpxC inhibitor): 3.25 µM; MIC ([1]; no pre-exposure, read-out: MIC of azithromycin, control): 12 µM; MIC of azithromycin after pre-exposure to cefamandole ([1]; bacteria pre-exposed to 16x cefamandole): 6.2 µM; fold decrease of azithromycin MIC after ecLpxC inhibitors ([1]; pre-treatment with 16xMIC ecLpxC inhibitors): 4 fold; fold decrease of azithromycin MIC after cefamandole ([1]; pre-treatment with cefamandole): 2 fold
Cn1nnnc1SCC1=C(C(=O)O)N2C(=O)[C@@H](NC(=O)[C@H](O)c3ccccc3)[C@H]2SC1 [Cefamandole] | 0 h | 0 h | failed to generate a PAE; also recorded: neither cefamandole nor trimethoprim showed a PAE | 0 h | 0 h | failed to generate a PAE; also recorded: neither cefamandole nor trimethoprim showed a PAE | – | – | – | – | – | – | – | – | – | – | – | PAE (h) (sub-MIC AZ) 16x(0.2) ([2]; then media with 0.2xMIC azithromycin): 0 h; PAE (h) (sub-MIC AZ) 16x(0.4) ([2]; then media with 0.4xMIC azithromycin): 0 h; MIC (μM) FabZ* ([3]; hyperactive FabZ strain (L85P)): 1.6 µM (≈ 0.74 µg/mL); MIC [6]: 6.25 µM (≈ 2.89 µg/mL)
CC(CCn1ccc(-c2ccc(-c3cn(Cc4ccc(F)cc4)nn3)cc2)cc1=O)(C(=O)NO)S(C)(=O)=O (racemic) [PT909, 4-(4-(4-(1-(4-fluorobenzyl)-1H-1,2,3-triazol-4-yl)phenyl)-2-oxopyridin-1(2H)-yl)-N-hydroxy-2-methyl-2-(methylsulfonyl)butanamide] | – | – | – | – | – | – | 106 ± 25 min and 106.2 ± 25.0 min | 1.56 µM (≈ 0.842 µg/mL) | 0.05 µM (≈ 0.027 µg/mL) | more than 3 logs | 0.008 ± 0.0023 nM | 68.2 ± 9.6 min | 0.00025 ± 3e-05 s⁻¹ | 33.8 ± 13.6 µM⁻¹ s⁻¹ | 1.7 ± 0.1 h | 2.5 ± 0.1 h | 3.5 ± 0.2 h | k (min^−1), spin-column assay [7]: 0.009 ± 0.002 min⁻¹
CC(CCn1ccc(-c2ccccc2)cc1=O)(C(=O)NO)S(C)(=O)=O (racemic) [PT901, N-hydroxy-2-methyl-2-(methylsulfonyl)-4-(2-oxo-4-phenylpyridin-1(2H)-yl)butanamide] | – | – | – | – | – | – | – | 3.12 µM (≈ 1.14 µg/mL) | 0.2 µM (≈ 0.0729 µg/mL) | more than 3 logs | – | – | – | – | 0.7 h and 0.7 ± 0.1 h | 1.1 ± 0.1 h | 1.3 ± 0.1 h | –
COc1ccc(-c2ccc(CNC3(C(=O)NO)CCS(=O)(=O)CC3)cc2)c(F)c1 [PT920, 4-(((2′-fluoro-4′-methoxy-[1,1′-biphenyl]-4-yl)methyl)amino)-N-hydroxytetrahydro-2H-thiopyran-4-carboxamide 1,1-dioxide] | – | – | – | – | – | – | 79 ± 24 min and 79.0 ± 24.0 min | 0.4 µM (≈ 0.169 µg/mL) | 0.03 µM (≈ 0.0127 µg/mL) | more than 3 logs | 0.0379 ± 0.024 nM | 32.0 ± 4.8 min | 0.00053 ± 7e-05 s⁻¹ | 16.6 ± 8.5 µM⁻¹ s⁻¹ | 1.0 ± 0.1 h | 1.3 ± 0.2 h | 1.7 ± 0.2 h | k (min^−1), spin-column assay [7]: 0.013 ± 0.004 min⁻¹
CC[C@H]1OC(=O)[C@H](C)[C@@H](O[C@H]2C[C@@](C)(OC)[C@@H](O)[C@H](C)O2)[C@H](C)[C@@H](O[C@@H]2O[C@H](C)C[C@H](N(C)C)[C@H]2O)[C@](C)(O)C[C@@H](C)C(=O)[C@H](C)[C@@H](O)[C@]1(C)O [Erythromycin] | 0.7 ± 0.1 h | 1.4 ± 0.4 h | 0.8 ± 0.05 h and 0.7 to 1.4 h | 0.8 ± 0.2 h | 1.5 ± 0.4 h | 0.8 ± 0.05 h and 0.7 to 1.4 h | – | – | – | – | – | – | – | – | – | – | – | MIC [3]: 6.25 µM (≈ 4.59 µg/mL); MIC ([6]; Escherichia coli): 50 µM (≈ 36.7 µg/mL)
COc1cc(Cc2cnc(N)nc2N)cc(OC)c1OC [Trimethoprim] | 0 h | 0 h | failed to generate a PAE; also recorded: neither cefamandole nor trimethoprim showed a PAE | 0 h | 0 h | failed to generate a PAE; also recorded: neither cefamandole nor trimethoprim showed a PAE | – | – | – | – | – | – | – | – | – | – | – | MIC [3]: 2.5 µM (≈ 0.726 µg/mL); MIC ([6]; Escherichia coli): 2.5 µM (≈ 0.726 µg/mL)
CC(CCn1ccc(-c2ccc(-c3cn(CC4CC4)nn3)cc2)cc1=O)(C(=O)NO)S(C)(=O)=O (racemic) [PT908, 4-(4-(4-(1-(cyclopropylmethyl)-1H-1,2,3-triazol-4-yl)phenyl)-2-oxopyridin-1(2H)-yl)-N-hydroxy-2-methyl-2-(methylsulfonyl)butanamide] | – | – | – | – | – | – | 190.6 ± 92.0 min | 3.12 µM (≈ 1.52 µg/mL) | 0.4 µM (≈ 0.194 µg/mL) | more than 3 logs | 0.0102 ± 0.0043 nM | 66.9 ± 8.6 min and 67.0 ± 8.6 min | 0.00025 ± 3e-05 s⁻¹ | 26.4 ± 6.3 µM⁻¹ s⁻¹ | 1.6 ± 0.1 h | 2.2 ± 0.1 h | 3.1 ± 0.1 h | –
